Values quoted from earlier work in patent US6929797B2, “Targeted therapeutic delivery of vitamin D compounds” (Bone Care International, Inc., priority 1997, dated 2005).
Where two headings read alike, the source gives them in different places.

Tests used:
[1] = 0.5 μg/day, postmenopausal women
[2] = not given; remark: listed apart in the source

Row | SMILES | intestinal calcium absorption and calcium balance [1] | effects on bone mass or mineral content (dosage levels below 0.5 μg/day) | toxicity (hypercalcemia and hypercalciuria) ([2]; above 0.5 μg/day) | efficacy (bone mass or bone mineral content) (1 μg/day, Japan, population with low calcium intake) | bone mass (Two μg/day, patients exhibiting senile osteoporosis) | patients in whom toxicity occurs ([2]; 1 μg/day) | patients in whom toxicity occurs ([2]; 2 μg/day)
1 | C=C1/C(=C\C=C2/CCC[C@]3(C)[C@@H]([C@H](C)CCCC(C)(C)O)CC[C@@H]23)C[C@@H](O)C[C@@H]1O [1α,25-dihydroxyvitamin D3] | improved | no effects | frequently resulted in toxicity |  |  |  | 
2 | C=C1/C(=C\C=C2/CCC[C@]3(C)[C@@H]([C@H](C)CCCC(C)C)CC[C@@H]23)C[C@@H](O)C[C@@H]1O [1α-hydroxyvitamin D3] |  |  |  | efficacy is found | efficacy in increasing bone mass | approximately 20% | approximately 67%
